Structures can show the parent of a compound that is named as a salt. Where two headings read alike, the source gives them in different places.
Key:
[1] = tested on: Phosphorylation of ERK1/2 in AsPC-1 cells; assay: Phospho-ERK1/2 MSD Assay; type: cell-based, human; conditions: read-out: 2 h p-ERK (AsPC-1 cells), IC50
Summary of the method: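 Read-out: MSD electrochemiluminescent detection of phosphorylated ERK1/2 in whole-cell lysates, fitted to a 4-parameter logistic curve for IC50. Prior to lysis, AsPC-1 cells (25,000 per well) received a 2 h compound dose-response at 37 °C.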

AsPC-1 cells = assay: AsPC-1 CTG Assay (CellTiter-Glo cell viability); type: cell-based, human; conditions: AsPC-1, 72 h, first value of the cell, read-out: G12D/C/V Cell Proliferation CTG (72 h) AsPC-1
Summary of the method: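 Human pancreatic AsPC-1 or colon SW620 cells in RPMI 1640 with 10% FBS, seeded overnight, then exposed to serially diluted compound for 72 h at 37 °C. CellTiter-Glo luminescence normalized to DMSO control; IC50 from a 4-parameter logistic model.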

SW620 cells = assay: SW620 CTG Assay (CellTiter-Glo cell viability); type: cell-based, human; conditions: Homo sapiens, SW-620; SW620, 72 h; third value of the cell; read-out: G12D/C/V Cell Proliferation CTG (72 h) SW620
Protocol: AsPC-1 and SW620 CTG Assay Protocols
AsPC-1 (human pancreatic adenocarcinoma; ATCC CRL-1682) or SW620 (human colon adenocarcinoma; ATCC CCL-227) cells were cultured in RPMI 1640 medium containing 10% fetal bovine serum and 1× penicillin/streptomycin/L-glutamine. Cells were seeded in 384-well plates at a density of 3.33E+04 cells/mL and incubated at 37° C., 5% CO2, overnight. Serially-diluted compound or DMSO was added to the cells, and plates were incubated at 37° C., 5% CO2 for 72 h. Cell viability was measured using a CellTiter-Glo® Luminescent Cell Viability Assay kit (Promega) according to the manufacturer's protocol. The luminescence signal of treated samples was normalized to DMSO control, and data were analyzed using a 4-parameter logistic model to calculate IC50 values.

[2] = molecular target: His-tagged KRAS G12D protein (Homo sapiens (Human), UniProt P01116, G12D); assay: KRAS G12D TR-FRET Assay; type: binding; conditions: read-out: KRAS G12D Binding IC50
Sequence of His-tagged KRAS G12D protein (P01116 other isoform, or with tags, fused parts or gaps G12D): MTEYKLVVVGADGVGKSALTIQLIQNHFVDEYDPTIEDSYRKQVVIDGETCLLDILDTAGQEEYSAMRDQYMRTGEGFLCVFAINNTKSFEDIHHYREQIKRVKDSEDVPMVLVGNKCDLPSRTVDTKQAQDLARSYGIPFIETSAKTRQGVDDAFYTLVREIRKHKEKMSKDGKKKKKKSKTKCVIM
Summary of the method: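 His-tagged KRAS G12D (diluted to 20 nM in pH 7.4 HEPES buffer with 10 mM MgCl2 and 10 μM GDP) was preincubated with titrated compound for 30 min at room temperature. Biotinylated KRPep-2d peptide (diluted to 20 nM) was then added for 1 h, and displacement was monitored by TR-FRET.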

[3] = molecular target: GDP-bound KRAS protein (aa 1-169), containing both G12D and C118A amino acid substitutions (Homo sapiens (Human), UniProt P01116, C118A/G12D); assay: KRAS G12D Coupled Nucleotide Exchange Assay; type: biochemical; conditions: read-out: KRAS G12D Coupled Exchange IC50
Sequence of GDP-bound KRAS protein (aa 1-169), containing both G12D and C118A amino acid substitutions (P01116 other isoform, or with tags, fused parts or gaps G12D/C118A): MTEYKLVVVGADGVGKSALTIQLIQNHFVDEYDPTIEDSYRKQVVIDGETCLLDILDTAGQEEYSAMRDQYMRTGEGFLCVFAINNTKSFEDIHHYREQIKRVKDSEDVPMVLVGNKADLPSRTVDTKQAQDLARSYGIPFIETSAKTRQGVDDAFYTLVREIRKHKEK

MIA PaCa-2 cells = assay: MIA PaCa-2 CTG Assay (CellTiter-Glo cell viability); type: cell-based, human; conditions: Mia PaCa-2, 72 h, second value of the cell, read-out: G12D/C/V Cell Proliferation CTG (72 h) Mia PaCa-2
Summary of the method: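 Human pancreatic carcinoma cells in RPMI 1640 with 10% FBS, seeded at 1.67E+04 cells/mL and left overnight, were treated with serially diluted compound for 72 h at 37° C, 5% CO2. Viability was read by CellTiter-Glo luminescence normalized to DMSO; IC50 came from a 4-parameter logistic fit.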

Structure (SMILES)	IC50 ([1]; Homo sapiens, ASPC1, 2 h)	IC50 (AsPC-1 cells; Homo sapiens, ASPC1, 72 h)	IC50 (SW620 cells)	IC50 [2]	IC50 [3]	IC50 (MIA PaCa-2 cells; Homo sapiens)	IC50 ([1]; 2 h)	IC50 (AsPC-1 cells)	IC50 (MIA PaCa-2 cells)
Cc1cc2[nH]ncc2c2c1CCCOC(=O)O[C@@H]1COCCN(C1)c1nc(OC[C@@]34CCCN3C[C@H](F)C4)nc3c(F)c-2c(F)cc13 [Example 102, (26S)-9,32-difluoro-4-(((2R,7aS)-2-fluorotetrahydro-1H-pyrrolo[1,2-a]pyrrol-7a(5H)-yl)methoxy)-18-methyl-23,25,28-trioxa-1,3,5,14,15-pentaazahexacyclo[24.4.1.1~6,10~.0~2,7~.0~11,19~.0~12,16~]dotriaconta-2,4,6,8,10(32),11,13,16,18-nonaen-24-one]	10 nM	90 nM	22.6 nM	–	–	–	–	–	–
C[C@@]12CCCN(C1)c1nc(OC[C@@]34CCCN3C[C@H](F)C4)nc3c(F)c(ncc13)-c1cccc3ccc(F)c(c13)CC[C@H](F)C(=O)N2 [Example 12, (15R,18S)-18,22,31-trifluoro-8-(((2R,7aS)-2-fluorotetrahydro-1H-pyrrolo[1,2-a]pyrrol-7a(5H)-yl)methoxy)-15-methyl-3,7,9,11,16-pentaazahexacyclo[19.7.1.1˜2,6˜.1˜11,15˜.0˜5,10˜.0˜25,29˜]hentriaconta-1(28),2(31),3,5,7,9,21,23,25(29),26-decaen-17-one]	52 nM	490 nM	427 nM	6 nM	3 nM	–	–	–	–
C[C@@]12CCCN(C1)c1nc(OC[C@@]34CCCN3C[C@H](F)C4)nc3c(F)c(ncc13)-c1cc(O)cc3cccc(c13)CCCCC(=O)N2 [Example 8, (15R)-32-Fluoro-8-(((2R,7aS)-2-fluorotetrahydro-1H-pyrrolo[1,2-a]pyrrol-7a(5H)-yl)methoxy)-28-hydroxy-15-methyl-3,7,9,11,16-pentaazahexacyclo[20.7.1.1˜2,6˜.1˜11,15˜.0˜5,10˜.0˜26,30˜]dotriaconta-1(29),2(32),3,5,7,9,22,24,26(30),27-decaen-17-one (2,2,2-trifluoroacetate) salt]	60 nM	–	579 nM	8 nM	6 nM	–	–	–	–
CN(C)CC1(COc2nc3c4cnc(c(F)c4n2)-c2c(c(Cl)cc4[nH]ncc24)CCOC(=O)O[C@H]2C[C@]4(CCCN3C4)C2)CC1 [Example 334, (1S,3R)-10-chloro-24-((1-((dimethylamino)methyl)cyclopropyl)methoxy)-32-fluoro-4,6-dioxa-13,14,19,23,25,27-hexaazaheptacyclo[25.3.1.1~1,3~.1~18,22~.0~9,17~.0~12,16~.0~21,26~]tritriaconta-9,11,14,16,18(32),19,21,23,25-nonaen-5-one]	8 nM	117 nM	31 nM	–	1 nM	–	–	–	–
Fc1c2ncc3c(nc(OC[C@@]45CCCN4C[C@H](F)C5)nc13)N1CCO[C@]3(C1)C[C@@H](C3)OCCCCc1c(Cl)cc3[nH]ncc3c1-2 (single isomer, unassigned) [Example 261]	40.2 nM	270 nM	–	6 nM	5 nM	28 nM	–	–	–
Cc1cc2[nH]ncc2c2c1CCOC(=O)OC[C@@H]1CCCN(C1)c1nc(OC[C@@]34CCCN3C[C@H](F)C4)nc3c(F)c-2ncc13 [Example 126, (17R)-30-Fluoro-24-(((2R,7aS)-2-fluorotetrahydro-1H-pyrrolo[1,2-a]pyrrol-7a(5H)-yl)methoxy)-9-methyl-13,15-dioxa-5,6,21,23,25,29-hexaazahexacyclo[24.3.1.1˜17,21˜.0˜2,10˜.0˜3,7˜.0˜22,27˜]hentriaconta-1(30),2,4,7,9,22,24,26,28-nonaen-14-one bis(2,2,2-trifluoroacetate)]	10 nM	160 nM	–	2 nM	1 nM	60 nM	–	–	–
C[C@@]12CCCN(C1)c1nc(OC[C@@]34CCCN3C[C@H](F)C4)nc3c(F)c(ncc13)-c1cc(O)cc3ccc(F)c(c13)CCCCC(=O)N2 [Example 47, (15R)-23,32-Difluoro-8-(((2R,7aS)-2-fluorotetrahydro-1H-pyrrolo[1,2-a]pyrrol-7a(5H)-yl)methoxy)-28-hydroxy-15-methyl-3,7,9,11,16-pentaazahexacyclo[20.7.1.1˜2,6˜.1˜11,15˜.0˜5,10˜.0˜26,30˜]dotriaconta-1(30),2(32),3,5,7,9,22,24,26,28-decaen-17-one]	36 nM	350 nM	–	4 nM	2 nM	200 nM	–	–	–
O=C1OCCCc2c(Cl)cc3[nH]ncc3c2-c2cc3nc(OC[C@@]45CCCN4C[C@H](F)C5)nc(c3cn2)N2CCOC[C@H](C2)O1 [Example 303, (26S)-18-chloro-4-(((2R,7aS)-2-fluorotetrahydro-1H-pyrrolo[1,2-a]pyrrol-7a(5H)-yl)methoxy)-23,25,28-trioxa-1,3,5,9,14,15-hexaazahexacyclo[24.4.1.1~6,10~.0~2,7~.0~11,19~.0~12,16~]dotriaconta-2,4,6,8,10(32),11,13,16,18-nonaen-24-one]	10 nM	155 nM	–	4 nM	2 nM	75 nM	–	–	–
C[C@@]12COCCN(C1)c1nc(OC[C@@]34CCCN3C[C@H](F)C4)nc3c(F)c(ncc13)-c1c3c(cc4[nH]ncc14)CC[C@H]3CCOC(=O)O2 [Example 365, (16S,22S)-34-fluoro-8-(((2R,7aS)-2-fluorotetrahydro-1H-pyrrolo[1,2-a]pyrrol-7a(5H)-yl)methoxy)-16-methyl-14,17,19-trioxa-3,7,9,11,28,29-hexaazaheptacyclo[20.9.1.1~2,6~.1~11,16~.0~5,10~.0~25,32~.0~27,31~]tetratriaconta-1(31),2(34),3,5,7,9,25(32),26,29-nonaen-18-one]	6.7 nM	141 nM	–	3 nM	1 nM	11 nM	–	–	–
Cc1cc2[nH]ncc2c2c1[C@H]1C[C@H]1CCOC[C@H]1CN(CCO1)c1nc(OC[C@@]34CCCN3C[C@H](F)C4)nc3c(F)c-2ncc13 (single isomer, unassigned) [Example 226]	77.8 nM	412 nM	–	7 nM	5 nM	130 nM	–	–	–
Fc1c2ncc3c(nc(OC[C@@]45CCCN4C[C@H](F)C5)nc13)N1CCCC[C@H](C1)c1cnn(n1)CCCc1c(Cl)cc3[nH]ncc3c1-2 [Example 296, (1R)-10-chloro-33-fluoro-24-(((2R,7aS)-2-fluorotetrahydro-1H-pyrrolo[1,2-a]pyrrol-7a(5H)-yl)methoxy)-4,5,13,14,19,23,25,27,34-nonaazaheptacyclo[25.4.1.1~2,5~.1~18,22~.0~9,17~.0~12,16~.0~21,26~]tetratriaconta-2(34),3,9,11,14,16,18(33),19,21,23,25-undecaene]	12.6 nM	150 nM	–	4 nM	4 nM	53 nM	–	–	–
O=C1CC[C@@H]2C[C@@H]2c2c(Cl)cc3[nH]ncc3c2-c2ncc3c(nc(OC[C@@]45CCCN4C[C@H](F)C5)nc3c2F)N2CCC[C@H](C2)O1 [Example 127]	–	–	–	4 nM	3 nM	–	13 nM	230 nM	120 nM
C[C@@]12CCCN(C1)c1nc(OC[C@@]34CCCN3C[C@H](F)C4)nc3c(F)c(ncc13)-c1cc(O)cc3cccc(c13)CCCC(=O)N2 [Example 3, (15R)-31-Fluoro-8-(((2R,7aS)-2-fluorotetrahydro-1H-pyrrolo[1,2-a]pyrrol-7a(5H)-yl)methoxy)-27-hydroxy-15-methyl-3,7,9,11,16-pentaazahexacyclo[19.7.1.1˜2,6˜.1˜11,15˜.0˜5,10˜.0˜25,29˜]hentriaconta-1(28),2(31),3,5,7,9,21,23,25(29),26-decaen-17-one bis(2,2,2-trifluoroacetate)]	23 nM	285 nM	–	1 nM	0.1 nM	75 nM	–	–	–
